The target of data set [1] is T1, Tyrosine-protein phosphatase non-receptor type 22 (Homo sapiens, UniProt Q9Y2R2).
T1 sequence (Q9Y2R2 whole entry): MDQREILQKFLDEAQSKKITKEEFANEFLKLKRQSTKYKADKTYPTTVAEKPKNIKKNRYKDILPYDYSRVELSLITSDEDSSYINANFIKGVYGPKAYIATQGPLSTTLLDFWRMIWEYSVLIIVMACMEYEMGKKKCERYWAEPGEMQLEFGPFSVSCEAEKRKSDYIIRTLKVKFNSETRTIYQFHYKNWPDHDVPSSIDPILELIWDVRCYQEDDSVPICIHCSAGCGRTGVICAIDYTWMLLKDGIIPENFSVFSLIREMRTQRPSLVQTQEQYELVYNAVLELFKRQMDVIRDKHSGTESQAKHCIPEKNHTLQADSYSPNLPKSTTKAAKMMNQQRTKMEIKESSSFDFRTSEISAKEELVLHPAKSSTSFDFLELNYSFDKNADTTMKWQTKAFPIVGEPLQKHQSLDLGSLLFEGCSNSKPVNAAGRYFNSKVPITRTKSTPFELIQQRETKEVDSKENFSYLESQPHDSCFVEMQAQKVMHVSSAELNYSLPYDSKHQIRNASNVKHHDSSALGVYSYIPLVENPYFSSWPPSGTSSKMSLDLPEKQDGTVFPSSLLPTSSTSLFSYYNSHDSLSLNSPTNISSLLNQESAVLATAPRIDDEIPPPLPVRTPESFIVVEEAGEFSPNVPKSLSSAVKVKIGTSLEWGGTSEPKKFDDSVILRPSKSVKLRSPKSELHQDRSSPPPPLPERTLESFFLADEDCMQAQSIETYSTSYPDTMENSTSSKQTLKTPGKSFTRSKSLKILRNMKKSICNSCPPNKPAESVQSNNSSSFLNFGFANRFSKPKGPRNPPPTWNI
Format: functional.

The target of data set [2] is T1, Tyrosine-protein phosphatase non-receptor type 22. Type of data set: functional. The source holds these as a separate data set.
For data set [3], the target named is T2, Tyrosine-protein phosphatase non-receptor type 7 (Homo sapiens, UniProt P35236).
T2 sequence (P35236 whole entry): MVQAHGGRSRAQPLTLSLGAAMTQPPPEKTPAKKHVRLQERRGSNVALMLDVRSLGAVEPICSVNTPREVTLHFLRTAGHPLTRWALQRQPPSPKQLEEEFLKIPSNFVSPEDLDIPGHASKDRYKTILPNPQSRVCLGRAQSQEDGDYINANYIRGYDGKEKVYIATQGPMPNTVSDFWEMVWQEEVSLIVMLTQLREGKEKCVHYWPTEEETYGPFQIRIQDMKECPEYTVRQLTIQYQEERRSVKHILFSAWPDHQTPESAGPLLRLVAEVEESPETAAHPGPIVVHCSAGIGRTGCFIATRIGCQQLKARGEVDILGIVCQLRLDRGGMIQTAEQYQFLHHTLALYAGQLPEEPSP
Type of data set: functional.

A further data set concerns the target Cytochrome P450 2C19 (Homo sapiens, UniProt P33261). Briefly: Cytochrome panel assay with activity outcomes. Panel member name: p450-cyp2c19 Compounds with AC50 equal or less than 10 uM are considered active. Format: functional.
A further data set has as its target Cytochrome P450 2D6 (Homo sapiens, UniProt P10635).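 Note: CYP2D6 member of a cytochrome P450 panel assay.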
For a further data set, the target named is T3, Caspase-6 (Homo sapiens, UniProt P55212).
T3 sequence (P55212 whole entry): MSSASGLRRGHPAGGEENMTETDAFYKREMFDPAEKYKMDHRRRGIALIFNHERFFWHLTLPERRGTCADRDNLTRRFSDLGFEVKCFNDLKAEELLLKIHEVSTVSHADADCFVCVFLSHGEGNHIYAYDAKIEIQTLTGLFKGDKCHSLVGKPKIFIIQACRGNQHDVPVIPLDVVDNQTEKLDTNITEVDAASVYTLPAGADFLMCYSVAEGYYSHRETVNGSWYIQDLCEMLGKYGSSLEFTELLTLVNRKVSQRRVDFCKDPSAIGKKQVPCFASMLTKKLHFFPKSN
Briefly: human caspase-6 inhibitors, dose response, biochemical, VEID-R110 fluorescence, cherry-pick (AID 720632).

For data set [4], the target named is Intestinal-type alkaline phosphatase (Homo sapiens, UniProt P09923). Briefly: activation of human intestinal alkaline phosphatase – biochemical, dose response (AID 488873). Type of data set: functional.
Chain of Intestinal-type alkaline phosphatase (Homo sapiens, UniProt P09923) (P09923 whole entry): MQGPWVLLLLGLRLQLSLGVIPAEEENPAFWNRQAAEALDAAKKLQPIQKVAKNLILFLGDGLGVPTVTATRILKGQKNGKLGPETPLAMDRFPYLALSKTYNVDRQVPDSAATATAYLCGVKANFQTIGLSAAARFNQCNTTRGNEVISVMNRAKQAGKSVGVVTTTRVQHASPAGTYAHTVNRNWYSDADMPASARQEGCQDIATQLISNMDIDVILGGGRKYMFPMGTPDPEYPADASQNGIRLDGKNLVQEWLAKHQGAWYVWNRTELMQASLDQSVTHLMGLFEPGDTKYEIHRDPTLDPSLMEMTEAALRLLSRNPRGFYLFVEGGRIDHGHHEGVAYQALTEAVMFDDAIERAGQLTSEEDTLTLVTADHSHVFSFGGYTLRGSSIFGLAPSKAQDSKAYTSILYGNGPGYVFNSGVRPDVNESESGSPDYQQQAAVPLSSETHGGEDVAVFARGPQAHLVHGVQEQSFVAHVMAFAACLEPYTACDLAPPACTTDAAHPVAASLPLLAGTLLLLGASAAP
Data set [5] concerns the target T4, Alkaline phosphatase, tissue-nonspecific isozyme (Homo sapiens, UniProt P05186).
T4 sequence (P05186 whole entry): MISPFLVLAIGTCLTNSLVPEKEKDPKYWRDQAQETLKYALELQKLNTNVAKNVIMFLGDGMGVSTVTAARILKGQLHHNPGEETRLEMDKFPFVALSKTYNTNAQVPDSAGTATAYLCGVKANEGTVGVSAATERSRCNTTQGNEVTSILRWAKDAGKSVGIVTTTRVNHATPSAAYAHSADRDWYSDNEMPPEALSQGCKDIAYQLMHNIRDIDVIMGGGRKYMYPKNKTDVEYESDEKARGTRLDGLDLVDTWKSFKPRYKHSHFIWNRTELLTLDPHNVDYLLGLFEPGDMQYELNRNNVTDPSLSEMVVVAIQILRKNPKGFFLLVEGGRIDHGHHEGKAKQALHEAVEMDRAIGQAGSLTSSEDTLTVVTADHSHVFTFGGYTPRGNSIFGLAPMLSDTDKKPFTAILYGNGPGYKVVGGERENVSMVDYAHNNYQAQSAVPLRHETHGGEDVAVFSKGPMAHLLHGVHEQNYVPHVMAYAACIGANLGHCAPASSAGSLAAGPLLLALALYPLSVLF
In words: TNAP enzyme activators, dose response, selectivity assay for mouse IAP activator project, biochemical, TNAP isozyme, mouse IAP uHTS hits (AID 488880). Type of data set: functional.

Data set [6] in a line: C. albicans growth with fluconazole, confirmation, fluorescence, retest (AID 2467). Format: functional, cell-based.
Data set [7] is described as follows: NIH-3T3 fibroblast cytotoxicity, dose response, cytotoxicity control, cell-based, fluorescence, Alamar Blue, secondary assay (AID 2327).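 Note: NIH-3T3 mouse fibroblasts cultured with fluconazole at 8 µg/mL.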 Type of data set: functional. (In general: Resazurin is reduced to fluorescent resorufin, in cell work by metabolically active cells.)
The target in data set [8] is T5, Histone-lysine N-methyltransferase NSD2 (Homo sapiens, UniProt O96028).
T5 sequence (O96028 whole entry): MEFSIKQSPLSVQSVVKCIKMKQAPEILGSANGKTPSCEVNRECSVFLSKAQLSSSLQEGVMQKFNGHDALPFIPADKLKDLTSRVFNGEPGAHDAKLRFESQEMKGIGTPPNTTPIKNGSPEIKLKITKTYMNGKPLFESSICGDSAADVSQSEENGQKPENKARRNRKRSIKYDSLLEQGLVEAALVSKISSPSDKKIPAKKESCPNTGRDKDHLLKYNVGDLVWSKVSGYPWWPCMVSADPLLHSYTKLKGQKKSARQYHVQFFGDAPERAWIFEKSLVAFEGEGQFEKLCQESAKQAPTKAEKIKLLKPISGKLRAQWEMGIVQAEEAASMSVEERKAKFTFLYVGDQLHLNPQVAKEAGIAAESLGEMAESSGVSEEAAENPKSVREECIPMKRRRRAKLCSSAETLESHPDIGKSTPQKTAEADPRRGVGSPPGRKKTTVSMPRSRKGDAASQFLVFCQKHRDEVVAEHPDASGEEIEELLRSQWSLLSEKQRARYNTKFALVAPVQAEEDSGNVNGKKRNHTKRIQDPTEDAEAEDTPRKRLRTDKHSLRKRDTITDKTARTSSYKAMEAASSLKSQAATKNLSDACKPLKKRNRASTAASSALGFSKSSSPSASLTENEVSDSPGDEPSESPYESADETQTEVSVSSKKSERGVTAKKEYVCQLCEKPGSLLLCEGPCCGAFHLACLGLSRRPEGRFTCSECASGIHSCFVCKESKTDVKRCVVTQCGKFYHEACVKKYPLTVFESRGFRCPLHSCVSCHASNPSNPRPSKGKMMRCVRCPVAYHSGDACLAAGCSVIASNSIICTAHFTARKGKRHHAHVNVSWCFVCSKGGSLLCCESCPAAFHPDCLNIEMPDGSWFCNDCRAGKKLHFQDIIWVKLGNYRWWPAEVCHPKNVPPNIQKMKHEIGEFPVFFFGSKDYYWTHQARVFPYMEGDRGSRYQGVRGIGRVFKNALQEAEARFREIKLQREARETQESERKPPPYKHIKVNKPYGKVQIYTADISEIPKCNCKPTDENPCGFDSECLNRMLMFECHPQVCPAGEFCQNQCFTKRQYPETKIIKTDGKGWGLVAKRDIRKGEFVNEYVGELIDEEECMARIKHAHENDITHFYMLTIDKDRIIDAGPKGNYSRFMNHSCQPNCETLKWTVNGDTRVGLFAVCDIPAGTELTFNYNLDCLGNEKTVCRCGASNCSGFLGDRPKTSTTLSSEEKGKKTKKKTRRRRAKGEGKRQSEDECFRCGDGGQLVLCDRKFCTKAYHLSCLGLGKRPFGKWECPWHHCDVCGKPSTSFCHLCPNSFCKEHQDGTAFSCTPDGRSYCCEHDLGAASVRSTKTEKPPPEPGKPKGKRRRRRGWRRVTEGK
Format: biochemical.

In data set [9] the target is T6, Intestinal-type alkaline phosphatase (Mus musculus, UniProt P24822). In words: mouse intestinal alkaline phosphatase activators, dose response, biochemical, luminescence, uHTS hits (AID 488783). Type of data set: functional.
T6 sequence (P24822 whole entry): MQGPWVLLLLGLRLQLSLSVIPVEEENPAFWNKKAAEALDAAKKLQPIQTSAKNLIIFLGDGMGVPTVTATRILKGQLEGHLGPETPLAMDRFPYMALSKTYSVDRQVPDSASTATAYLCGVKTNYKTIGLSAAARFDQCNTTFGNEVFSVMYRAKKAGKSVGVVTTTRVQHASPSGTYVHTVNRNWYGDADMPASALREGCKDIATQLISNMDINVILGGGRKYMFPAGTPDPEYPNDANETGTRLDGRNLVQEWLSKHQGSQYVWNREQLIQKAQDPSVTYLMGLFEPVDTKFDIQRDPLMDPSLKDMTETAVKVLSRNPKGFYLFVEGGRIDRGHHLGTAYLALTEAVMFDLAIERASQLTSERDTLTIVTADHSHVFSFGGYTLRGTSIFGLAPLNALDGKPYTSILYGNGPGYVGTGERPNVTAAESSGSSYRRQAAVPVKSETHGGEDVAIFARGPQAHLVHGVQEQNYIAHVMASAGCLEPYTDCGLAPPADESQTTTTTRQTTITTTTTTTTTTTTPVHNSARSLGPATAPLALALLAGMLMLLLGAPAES
Data set [10] addresses T6, Intestinal-type alkaline phosphatase. Briefly: PubChem AID 488785. Format: functional.
Data set [11] concerns the target T4, Alkaline phosphatase, tissue-nonspecific isozyme. In words: TNAP enzyme inhibition by screening hits, dose response, selectivity assay for mouse IAP inhibitor project, biochemical, human TNAP, uHTS hits (AID 488906). Format: functional.
In the next data set the target is Large T antigen (Simian virus 40, UniProt P03070). Type of data set: functional, Betapolyomavirus macacae.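 Note: Confirmatory-stage PubChem screen for compounds that inhibit SV40 T antigen.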
Chain of Large T antigen (P03070 whole entry): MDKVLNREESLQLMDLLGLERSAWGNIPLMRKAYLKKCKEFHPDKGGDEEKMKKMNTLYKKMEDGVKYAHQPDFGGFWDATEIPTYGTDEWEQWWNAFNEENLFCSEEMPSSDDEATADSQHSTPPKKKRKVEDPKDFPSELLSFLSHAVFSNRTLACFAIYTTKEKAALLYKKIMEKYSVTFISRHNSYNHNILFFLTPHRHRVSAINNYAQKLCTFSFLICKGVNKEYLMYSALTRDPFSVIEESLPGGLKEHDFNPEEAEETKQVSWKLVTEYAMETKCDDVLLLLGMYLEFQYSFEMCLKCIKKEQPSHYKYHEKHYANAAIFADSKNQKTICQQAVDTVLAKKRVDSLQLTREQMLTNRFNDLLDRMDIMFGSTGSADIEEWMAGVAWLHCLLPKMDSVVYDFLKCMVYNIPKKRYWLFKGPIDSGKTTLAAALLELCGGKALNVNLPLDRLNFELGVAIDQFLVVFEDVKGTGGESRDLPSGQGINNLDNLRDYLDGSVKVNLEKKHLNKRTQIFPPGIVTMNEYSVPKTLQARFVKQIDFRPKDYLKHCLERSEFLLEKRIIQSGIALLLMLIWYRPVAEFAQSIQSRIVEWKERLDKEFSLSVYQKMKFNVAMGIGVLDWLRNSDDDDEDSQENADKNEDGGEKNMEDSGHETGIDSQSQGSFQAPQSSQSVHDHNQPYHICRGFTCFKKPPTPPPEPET

In general, IC50 refers to the concentration that gives 50% inhibition. Usually AC50 stands for the concentration giving half of the maximal activity seen. Broadly, the EC50 is the concentration that produces a half-maximal response.

Calls of active or inactive are those of the source.

Chain of Cytochrome P450 2C19 (P33261 whole entry): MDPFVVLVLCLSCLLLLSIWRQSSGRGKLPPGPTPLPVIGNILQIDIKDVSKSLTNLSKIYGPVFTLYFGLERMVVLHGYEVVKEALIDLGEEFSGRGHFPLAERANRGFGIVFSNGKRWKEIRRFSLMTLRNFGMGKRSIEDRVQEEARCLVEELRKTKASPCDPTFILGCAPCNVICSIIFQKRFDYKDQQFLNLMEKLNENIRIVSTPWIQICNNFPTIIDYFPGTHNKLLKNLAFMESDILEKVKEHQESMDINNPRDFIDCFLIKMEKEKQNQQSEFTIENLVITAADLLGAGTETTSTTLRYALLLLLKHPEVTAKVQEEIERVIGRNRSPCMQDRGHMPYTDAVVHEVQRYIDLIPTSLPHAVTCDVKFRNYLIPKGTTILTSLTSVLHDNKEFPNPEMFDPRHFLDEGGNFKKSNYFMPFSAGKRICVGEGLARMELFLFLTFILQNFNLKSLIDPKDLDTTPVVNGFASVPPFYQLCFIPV
Chain of Cytochrome P450 2D6 (P10635 whole entry): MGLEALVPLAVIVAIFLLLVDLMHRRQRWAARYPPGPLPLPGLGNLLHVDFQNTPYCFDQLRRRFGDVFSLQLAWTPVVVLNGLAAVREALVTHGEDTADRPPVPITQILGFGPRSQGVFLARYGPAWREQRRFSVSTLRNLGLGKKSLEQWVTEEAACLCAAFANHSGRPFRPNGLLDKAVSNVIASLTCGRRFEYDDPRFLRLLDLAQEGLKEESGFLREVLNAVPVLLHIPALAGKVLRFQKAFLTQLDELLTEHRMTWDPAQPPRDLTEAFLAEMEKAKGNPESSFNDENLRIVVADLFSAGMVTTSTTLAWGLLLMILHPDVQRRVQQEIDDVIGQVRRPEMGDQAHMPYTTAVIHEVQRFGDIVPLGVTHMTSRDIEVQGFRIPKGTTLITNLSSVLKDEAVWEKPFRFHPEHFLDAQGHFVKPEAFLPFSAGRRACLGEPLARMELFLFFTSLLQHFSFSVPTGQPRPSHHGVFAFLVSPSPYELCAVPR

As for `CC(=O)Nc1ccc(SCC(=O)Nc2ccc(Cl)cn2)cc1`, the IC50 in data set [1], in data set [2] and in [3] was > 79.4 µM (inactive) each time.
Take `O=C(O)c1cc(/N=N\c2ccc([As](=O)(O)O)cc2)ccc1O`: the AC50 entry at Cytochrome P450 2C19 and at Cytochrome P450 2D6 was “inconclusive” throughout.
Regarding `NNC(=O)c1cc(O)c(O)c(O)c1`, the results for the half-maximal activity concentration (AC50) (at Caspase-6; in data set [8]) were 2.43 µM (active) and 5.41 µM (active), respectively. For the same compound, the EC50 in data set [4] is 82.6 µM (active); in [5], 69.3 µM (active); in [6] it was > 38 µM (not active); in data set [7], 41.7 µM (active); in data set [9], 8.04 µM (active).
For `COc1cccc(C(C)NC(=O)Nc2cccc(C(F)(F)F)c2)c1` (stereo not drawn), in data set [4], the EC50 was > 100 µM (inactive). Further, the results for the IC50 in data set [10] and in [11] were 3.21 µM (active) and > 100 µM (inactive), respectively.
As to `O=C(CSc1nc2ccccc2o1)N/N=C/c1ccc(O)c(O)c1`, the IC50 at Large T antigen was 6.69 µM (active). The EC50 in data set [4] was 63 µM (active); in [5] it was 61.7 µM (active); in data set [9] it was 69.9 µM (active). Moreover, the half-maximal activity concentration (AC50) in data set [8] was 0.742 µM (active).
As for `Cc1ccc(OCC(=O)N/N=C\c2ccco2)c(C)c1`, the IC50 in [1], in data set [2] and in data set [3] was > 79.4 µM (inactive) throughout.

(Values after ChEMBL document CHEMBL1201862, “PubChem BioAssay data set” (2004).)
